The text below walks through data of ChEMBL document CHEMBL1124182, “Design, synthesis, and properties of (4S)-7-(4-amino-2-substituted-pyrrolidin-1-yl)quinolone-3-carboxylic acids” (J Med Chem, 1988).

In brackets after ≈: the same amount, converted by molar mass.

For orientation: logP means a log measure of how a compound divides between an organic and an aqueous phase. High values mean higher lipophilicity, low ones lower lipophilicity. Usually MIC stands for the least concentration at which growth counts as inhibited. In general, ED50 refers to the dose at which the effect has come halfway, by size or by number of responders. A lower ED50 goes with greater potency. As a reminder, the solubility is the concentration that dissolves in the medium under given conditions.

System in the first data set: not listed separately
Kind of data set: Partition coefficient (logP). The following applies: octanol/water. The data set is classed as physicochemical.
`N[C@H]1CC(CO)N(c2cc3c(cc2F)c(=O)c(C(=O)O)cn3-c2ccc(F)cc2F)C1` (stereo partly drawn): the logP was -0.98.
In turn, `C[C@@H]1C[C@H](N)CN1c1cc2c(cc1F)c(=O)c(C(=O)O)cn2-c1ccc(F)cc1F` returned a logP of 0.03.

The subject of the next data set is Acinetobacter. Kind of data set: In vitro Minimum inhibitory concentration against Acinetobacter CMX 669. It is filed as functional. Conditions: Acinetobacter; read-out: MIC.
Turning to `N[C@H]1CC(CO)N(c2cc3c(cc2F)c(=O)c(C(=O)O)cn3-c2ccc(F)cc2F)C1` (stereo partly drawn), the MIC turned out to be 6.2 µg/mL (≈ 14.3 µM).
On to `C[C@@H]1C[C@H](N)CN1c1cc2c(cc1F)c(=O)c(C(=O)O)cn2-c1ccc(F)cc1F`, for which the MIC was found to be 3.1 µg/mL (≈ 7.43 µM).

In another data set the test system is Escherichia coli. Kind of data set: In vitro Minimum inhibitory concentration against Escherichia coli Juhl. The data set is classed as functional.
Details: not given
The compound `N[C@H]1CC(CO)N(c2cc3c(cc2F)c(=O)c(C(=O)O)cn3-c2ccc(F)cc2F)C1` (stereo partly drawn) returned an MIC of 0.78 µg/mL (≈ 1.8 µM).
The same measure, in the same setting: with `C[C@@H]1C[C@H](N)CN1c1cc2c(cc1F)c(=O)c(C(=O)O)cn2-c1ccc(F)cc1F` the figure was 0.78 µg/mL (≈ 1.87 µM).

For another data set, the system named is Escherichia coli. Nature of the data set: Supercoiling inhibition assay using purified DNA gyrase isolated from Escherichia coli H560. The data set is classed as functional. The following applies: read-out: I50.
As for `N[C@H]1CC(CO)N(c2cc3c(cc2F)c(=O)c(C(=O)O)cn3-c2ccc(F)cc2F)C1` (stereo partly drawn), the IC50 is 0.4 µg/mL (≈ 0.923 µM).
As for `C[C@@H]1C[C@H](N)CN1c1cc2c(cc1F)c(=O)c(C(=O)O)cn2-c1ccc(F)cc1F`, the IC50 worked out at 18 µg/mL (≈ 43.1 µM).

In another data set the test system is Klebsiella pneumoniae. Kind of data set: In vitro Minimum inhibitory concentration against Klebsiella pneumoniae 8045.
Details: not given
The data set is classed as functional.
Consider `N[C@H]1CC(CO)N(c2cc3c(cc2F)c(=O)c(C(=O)O)cn3-c2ccc(F)cc2F)C1` (stereo partly drawn), for which the MIC turned out to be 0.78 µg/mL (≈ 1.8 µM).
Compound `C[C@@H]1C[C@H](N)CN1c1cc2c(cc1F)c(=O)c(C(=O)O)cn2-c1ccc(F)cc1F` displayed an MIC of 0.78 µg/mL (≈ 1.87 µM).

The subject of a further data set is Mus musculus. Nature of the data set: In vivo efficacy against Escherichia coli Juhl, in mouse protection tests when administered perorally (po).
Details: not given
It is filed as functional.
For `N[C@H]1CC(CO)N(c2cc3c(cc2F)c(=O)c(C(=O)O)cn3-c2ccc(F)cc2F)C1` (stereo partly drawn), the ED50 is over 16 mg/kg.

Another data set concerns Mus musculus. Kind of data set: In vivo efficacy against Escherichia coli Juhl, in mouse protection tests when administered subcutaneously (sc). The data set is classed as functional.
Details: not given
`N[C@H]1CC(CO)N(c2cc3c(cc2F)c(=O)c(C(=O)O)cn3-c2ccc(F)cc2F)C1` (stereo partly drawn) gave an ED50 of 5.9 mg/kg.

The subject of a further data set is Pseudomonas aeruginosa. Nature of the data set: In vitro Minimum inhibitory concentration against Pseudomonas aeruginosa 5007.
Details: not given
It is filed as functional.
With `N[C@H]1CC(CO)N(c2cc3c(cc2F)c(=O)c(C(=O)O)cn3-c2ccc(F)cc2F)C1` (stereo partly drawn), the MIC was determined as 0.78 µg/mL (≈ 1.8 µM).
As for `C[C@@H]1C[C@H](N)CN1c1cc2c(cc1F)c(=O)c(C(=O)O)cn2-c1ccc(F)cc1F`, the lowest concentration to inhibit growth (MIC) was 5 µg/mL (≈ 12 µM).

The next data set has as its system Pseudomonas aeruginosa. Kind of data set: In vitro Minimum inhibitory concentration against Pseudomonas aeruginosa K799/WT. The data set is classed as functional.
Details: not given
In turn, `N[C@H]1CC(CO)N(c2cc3c(cc2F)c(=O)c(C(=O)O)cn3-c2ccc(F)cc2F)C1` (stereo partly drawn) had an MIC of 0.39 µg/mL (≈ 0.9 µM).
`C[C@@H]1C[C@H](N)CN1c1cc2c(cc1F)c(=O)c(C(=O)O)cn2-c1ccc(F)cc1F` yielded a minimum inhibitory concentration (MIC) of 6.2 µg/mL (≈ 14.9 µM).

In the next data set the test system is Staphylococcus epidermidis. Nature of the data set: In vitro Minimum inhibitory concentration against Staphylococcus epidermidis 3519. The data set is classed as functional.
Details: not given
Regarding `N[C@H]1CC(CO)N(c2cc3c(cc2F)c(=O)c(C(=O)O)cn3-c2ccc(F)cc2F)C1` (stereo partly drawn), the MIC was 0.78 µg/mL (≈ 1.8 µM).
In turn, `C[C@@H]1C[C@H](N)CN1c1cc2c(cc1F)c(=O)c(C(=O)O)cn2-c1ccc(F)cc1F` displayed an MIC of 0.78 µg/mL (≈ 1.87 µM).

A further data set deals with Streptococcus agalactiae. Nature of the data set: In vitro Minimum inhibitory concentration against Streptococcus agalactiae CMX 508.
Details: not given
It is filed as functional.
The compound `N[C@H]1CC(CO)N(c2cc3c(cc2F)c(=O)c(C(=O)O)cn3-c2ccc(F)cc2F)C1` (stereo partly drawn) came in with an MIC of 0.78 µg/mL (≈ 1.8 µM).
Same read-out and setting: with `C[C@@H]1C[C@H](N)CN1c1cc2c(cc1F)c(=O)c(C(=O)O)cn2-c1ccc(F)cc1F` the figure was 6.2 µg/mL (≈ 14.9 µM).

The next data set relates to Staphylococcus aureus. Kind of data set: In vitro Minimum inhibitory concentration against Staphylococcus aureus 45. The data set is classed as functional.
Details: not given
Compound `N[C@H]1CC(CO)N(c2cc3c(cc2F)c(=O)c(C(=O)O)cn3-c2ccc(F)cc2F)C1` (stereo partly drawn) gave an MIC of 1.56 µg/mL (≈ 3.6 µM).
On to `C[C@@H]1C[C@H](N)CN1c1cc2c(cc1F)c(=O)c(C(=O)O)cn2-c1ccc(F)cc1F`, for which the MIC was 0.78 µg/mL (≈ 1.87 µM).

In another data set the test system is Staphylococcus aureus. Kind of data set: In vitro Minimum inhibitory concentration against Staphylococcus aureus A5177. It is filed as functional.
Details: not given
Compound `N[C@H]1CC(CO)N(c2cc3c(cc2F)c(=O)c(C(=O)O)cn3-c2ccc(F)cc2F)C1` (stereo partly drawn) gave an MIC of 0.78 µg/mL (≈ 1.8 µM).
In turn, `C[C@@H]1C[C@H](N)CN1c1cc2c(cc1F)c(=O)c(C(=O)O)cn2-c1ccc(F)cc1F` displayed an MIC of 0.78 µg/mL (≈ 1.87 µM).

In the next data set the test system is Staphylococcus aureus. Nature of the data set: In vitro Minimum inhibitory concentration against Staphylococcus aureus ATCC 6538P. It is filed as functional.
Details: not given
Compound `N[C@H]1CC(CO)N(c2cc3c(cc2F)c(=O)c(C(=O)O)cn3-c2ccc(F)cc2F)C1` (stereo partly drawn) yielded an MIC of 0.1 µg/mL (≈ 0.231 µM).
For the compound `C[C@@H]1C[C@H](N)CN1c1cc2c(cc1F)c(=O)c(C(=O)O)cn2-c1ccc(F)cc1F`, the lowest concentration to inhibit growth (MIC) was 0.39 µg/mL (≈ 0.934 µM).

The subject of another data set is Streptococcus equinus. Nature of the data set: In vitro Minimum inhibitory concentration against Streptococcus bovis A5169. It is filed as functional.
Details: not given
Compound `N[C@H]1CC(CO)N(c2cc3c(cc2F)c(=O)c(C(=O)O)cn3-c2ccc(F)cc2F)C1` (stereo partly drawn) registered an MIC of 1.56 µg/mL (≈ 3.6 µM).
As to `C[C@@H]1C[C@H](N)CN1c1cc2c(cc1F)c(=O)c(C(=O)O)cn2-c1ccc(F)cc1F`, the MIC was determined as 6.2 µg/mL (≈ 14.9 µM).

For another data set, the system named is Enterococcus faecium. Nature of the data set: In vitro Minimum inhibitory concentration against Streptococcus faecium ATCC 8043. It is filed as functional.
Details: not given
In turn, `N[C@H]1CC(CO)N(c2cc3c(cc2F)c(=O)c(C(=O)O)cn3-c2ccc(F)cc2F)C1` (stereo partly drawn) displayed an MIC of 0.78 µg/mL (≈ 1.8 µM).
Still for that read-out and setting: under `C[C@@H]1C[C@H](N)CN1c1cc2c(cc1F)c(=O)c(C(=O)O)cn2-c1ccc(F)cc1F` stands 3.1 µg/mL (≈ 7.43 µM).

A further data set has as its system Staphylococcus aureus. Kind of data set: In vivo efficacy against Staphylococcus aureus 10649, in mouse protection tests when administered perorally (po). It is filed as functional.
Details: not given
On to `N[C@H]1CC(CO)N(c2cc3c(cc2F)c(=O)c(C(=O)O)cn3-c2ccc(F)cc2F)C1` (stereo partly drawn), for which the 50% effect level (ED50) was put at a dose of 5.4 mg/kg.

A further data set concerns Staphylococcus aureus. Kind of data set: In vivo efficacy against Staphylococcus aureus 10649, in mouse protection tests when administered subcutaneously (sc). The data set is classed as functional.
Details: not given
`N[C@H]1CC(CO)N(c2cc3c(cc2F)c(=O)c(C(=O)O)cn3-c2ccc(F)cc2F)C1` (stereo partly drawn) showed an ED50 of 0.7 mg/kg.

A further data set concerns Streptococcus pyogenes. Kind of data set: In vitro Minimum inhibitory concentration against Streptococcus pyogenes 930.
Details: not given
It is filed as functional.
Compound `N[C@H]1CC(CO)N(c2cc3c(cc2F)c(=O)c(C(=O)O)cn3-c2ccc(F)cc2F)C1` (stereo partly drawn) gave an MIC of 0.39 µg/mL (≈ 0.9 µM).
Compound `C[C@@H]1C[C@H](N)CN1c1cc2c(cc1F)c(=O)c(C(=O)O)cn2-c1ccc(F)cc1F` registered an MIC of 1.56 µg/mL (≈ 3.74 µM).

System in the next data set: not listed separately
Nature of the data set: Compound was evaluated for the solubility in Ringer's buffer solution. It is filed as ADME. Conditions: Ringer's buffer solution; read-out: Solubility.
`N[C@H]1CC(CO)N(c2cc3c(cc2F)c(=O)c(C(=O)O)cn3-c2ccc(F)cc2F)C1` (stereo partly drawn): the solubility was 60 µg/mL (≈ 138 µM).
Regarding `C[C@@H]1C[C@H](N)CN1c1cc2c(cc1F)c(=O)c(C(=O)O)cn2-c1ccc(F)cc1F`, the solubility was 182 µg/mL (≈ 436 µM).

The next data set relates to Staphylococcus aureus. Kind of data set: In vitro Minimum inhibitory concentration against Staphylococcus aureus CMX 686B.
Details: not given
It is filed as functional.
In turn, `N[C@H]1CC(CO)N(c2cc3c(cc2F)c(=O)c(C(=O)O)cn3-c2ccc(F)cc2F)C1` (stereo partly drawn) displayed an MIC of 0.39 µg/mL (≈ 0.9 µM).
`C[C@@H]1C[C@H](N)CN1c1cc2c(cc1F)c(=O)c(C(=O)O)cn2-c1ccc(F)cc1F` returned an MIC of 0.39 µg/mL (≈ 0.934 µM).
